Test results taken from patent US7838045B2, “Anti-inflammatory activity of phenethylisothiocyanate (PEITC) and the Barbarea verna seed preparation containing this compound” (priority 2005, dated 2010).

Experiments:
Format in all cases: cell-based, mouse
IL1β = assay: qPCR gene expression in LPS-stimulated RAW264.7 macrophages, IL1β; conditions: for IL1β % down-regulation: 8 hour treatment
Description: (§1) The mouse monocyte/macrophage cell line RAW 264.7 (obtained from American Type Culture Collection, ATCC, VA USA) was maintained in Dulbecco's Modified Eagle Medium (DMEM) (Invitrogen Inc) supplemented with 100 U/ml penicillin, 100 μg/ml streptomycin, and 10% heat-inactivated fetal calf serum. All incubations were at 37° C. in a 5% CO2 in internal air atmosphere, within the growth chamber.
(§2) Cells were seeded at a density of 0.4×10^6 cells per well (viable cell counts performed with a hemocytometer), in 24 well plates 12 hours prior to treatment. The cells were then treated with test compounds at required concentrations (pre-determined doses) for 2 hours before elicitation with LPS at 1 μg/ml for an additional 6 hours. For every experiment one positive control (cells treated only with LPS) and one negative control (cells without any treatment) were included. For treatments and the controls, two replicates were made in each case. At the end, cells were harvested in Trizol reagent (Invitrogen Inc) for subsequent cellular RNA extraction. The stock of BSP used for the assay was prepared by partially dissolving 50 mg/ml seed preparation in 95% ethyl alcohol for 15 minutes by sonication, where it released PEITC in the clear supernatant that was used for the cell treatment. Cell viability was measured by MTT assay (Mosmann (1983) J. Immunol. Methods 65:55-63).
(§3) Total RNA was extracted from RAW macrophages using Trizol reagent (Invitrogen Inc.) following manufacturer instructions. RNA was quantified spectro-photometrically by absorption measurements at 260 nm and 280 nm using NanoDrop™ system (NanoDrop Technologies Inc. DE, USA). RNA was assessed qualitatively by gel-electrophoresis methods. RNA was then treated with DnaseI (Invitrogen Inc.) also following manufacturer guidelines, to remove any traces of DNA contamination. The cDNAs were synthesized using 3 μg of RNA for each sample using Stratascript™ Reverse Transcriptase, an RNA dependent DNA polymerase (Stratagene, La Jolla, Calif.), following manufacturer protocol. Utmost care was taken to minimize any quantification inaccuracy and pipetting error.
(§4) The synthesized cDNAs were diluted 4-fold. 2 μl of each of these diluted samples were used for PCR reactions of 25 μl final volume. The other components of the PCR reactions were 0.5 μl of 6 μM gene specific primers (oligos synthesized by IDT Inc. USA), 12.5 μl of Brilliant SYBR green PCR master mix (2×) (Stratagene, La Jolla, Calif.) containing green jump-start Taq ready mix. ROX (Stratagene, La Jolla, Calif.) was used as an internal dye. To avoid interference due to genomic DNA contamination, only intron-overlapping primers were selected using the software Primer Express™ (Applied Biosystem, Foster City, Calif.) as follows:
(§5) Forward and reverse pairs of the primers are indicated above as “F” and “R” respectively. PCR amplifications were performed on MX3000p system (Stratagene, La Jolla, Calif.) using 1 cycle at 50° C. for 2 min, 1 cycle of 95° C. for 10 minutes, followed by 40 cycles of 15 seconds at 95° C. and 1 min at 60° C. The dissociation curve was completed with one cycle of 1 minute at 95° C., 30 seconds of 55° C. and 30 seconds of 95° C. NRT (non-RT control) and NTC (no template control) were included in the PCR program as quality control steps.
(§6) RNA expressions for COX2, iNOS and IL1β, normalized with respect to the expression of housekeeping β-actin gene, were analyzed using the ΔΔCt method (software from Stratagene inc, USA) as described by Pfaffl (Pfaffl, 2001, Nucleic Acids Res 29(9):2002-2007). The ΔΔCt values obtained from these analyses were converted [(1−ΔΔCt)×100] to obtain percentage of inhibition (% inhibition or % downregulation) which reflected the anti-inflammatory properties of the test compounds (Table 2, 4). A value of 100% indicates complete inhibition of LPS-stimulated genetic up-regulation. 0% implies absence of any anti-inflammatory activity of the test compound. […]

COX2 = assay: qPCR gene expression in LPS-stimulated RAW264.7 macrophages, COX2; conditions: for COX2 % down-regulation: 8 hour treatment
Description: as §1
as §2, with “The stock of BSP used for the assay was prepared by partially dissolving 50 mg/ml seed preparation in 95% ethyl alcohol for 15 minutes by sonication, where it released PEITC in the clear supernatant that was used for the cell treatment.” left out
as §3, §4, §5
RNA expressions for COX2, iNOS and IL1β, normalized with respect to the expression of housekeeping β-actin gene, were analyzed using the ΔΔCt method (software from Stratagene inc, USA) as described by Pfaffl (Pfaffl, 2001, Nucleic Acids Res 29(9):2002-2007). The ΔΔCt values obtained from these analyses were converted [(1−ΔΔCt)×100] to obtain percentage of inhibition (% inhibition or % downregulation) which reflected the anti-inflammatory properties of the test compounds (Table 2, 4). A value of 100% indicates complete inhibition of LPS-stimulated genetic up-regulation. 0% implies absence of any anti-inflammatory activity of the test compound.

iNOS = assay: qPCR gene expression in LPS-stimulated RAW264.7 macrophages, iNOS; conditions: for iNOS % down-regulation: 8 hour treatment
Description: as §1, §2, §3, §4, §5, §6

[1] = Mus musculus, RAW264.7, pure compound

| Compound | IL1β % down-regulation (IL1β; 5 μM) [%] | COX2 % down-regulation (COX2; 5 μM) | iNOS % down-regulation (iNOS; 5 μM) [%] | IL1β % down-regulation (IL1β; 10 μM) [%] | COX2 % down-regulation (COX2; 10 μM) | iNOS % down-regulation (iNOS; 10 μM) [%] | IL1β % down-regulation (IL1β; 1 μM) [%] | IL1β % down-regulation (IL1β; 20 μM) [%] | COX2 % down-regulation (COX2; 1 μM) [%] | COX2 % down-regulation (COX2; 20 μM) [%] | iNOS % down-regulation (iNOS; 1 μM) [%] | iNOS % down-regulation (iNOS; 20 μM) [%] | also measured |
| --- | --- | --- | --- | --- | --- | --- | --- | --- | --- | --- | --- | --- | --- |
| C=CCN=C=S [Allyl] | 86 | Up-regulation | 76 | – | – | – | – | – | – | – | – | – | IL1β % down-regulation (IL1β; 5 μM, listed as allyl): equally active as PEITC; iNOS % down-regulation (iNOS; 5 μM, listed as allyl): equally active as PEITC |
| CC(C)N=C=S [Isopropyl] | 40 | Up-regulation | 9 | 59 | Up-regulation | 7 | – | – | – | – | – | – | – |
| S=C=NCCc1ccccc1 [PEITC, phenethylisothiocyanate] | 86.0 ± 9.8 | 19.0 ± 27.1% | 69.8 ± 21.1 | 92.0 ± 10.4 | 28.3 ± 15.0% | 81.7 ± 5.5 | 36.5 ± 9.2 | 100.0 ± 0.0 | −73.5 ± 20.5 | 99.5 ± 0.7 | 2.0 ± 7.1 | 99.5 ± 0.7 | IL1β % down-regulation (IL1β; 40 μM): 100.0 ± 0.0%; IL1β % down-regulation (IL1β; 80 μM): 100.0 ± 0.0%; IC50 (IL1β; Mus musculus, RAW264.7, pure compound, read-out: IC50 in IL1 β-assay): 2 µM; COX2 % down-regulation (COX2; 40 μM): 100.0 ± 0.0%; COX2 % down-regulation (COX2; 80 μM): 100.0 ± 0.0%; IC50 (COX2; [1]): 17 µM; iNOS % down-regulation (iNOS; 40 μM): 99.5 ± 0.7%; iNOS % down-regulation (iNOS; 80 μM): 99.5 ± 0.7%; IC50 (iNOS; [1]): 4 µM |
| S=C=Nc1ccccc1 [Phenyl] | 47 | Up-regulation | 31 | 59 | 3% | 35 | – | – | – | – | – | – | – |
| CC(C)(C)N=C=S [Tert-butyl] | 44 | Up-regulation | 3 | 61 | Up-regulation | 0 | – | – | – | – | – | – | – |
| CS(=O)(=O)c1ccc(C2=C(c3ccccc3)C(=O)OC2)cc1 [rofecoxib] | 10 | 8% | 37 | 12 | 22% | 68 | 18 | 15 | −52 | 25 | 35 | 45 | – |
